{"source": "patent US20230398069A1", "about": "“ETOPOSIDE TONIRIBATE FORMULATION” (CELLACT PHARMA GMBH, priority 2020, published 2023)", "origin": "cited, not measured here", "settings": "API"}
{"smiles": "COc1cc([C@@H]2c3cc4c(cc3[C@@H](O[C@@H]3O[C@@H]5CO[C@@H](C)O[C@H]5[C@@H](O)[C@H]3O)[C@H]3COC(=O)[C@H]23)OCO4)cc(OC)c1OC(=O)OCC1COC(C)(C)O1", "note": "(some centres unmarked) [Etoposide toniribate]", "values": [{"measurement": "solubility in water", "value": "poorly soluble in water"}, {"measurement": "stability at acidic and basic pH", "value": "unstable at acidic and basic pH"}]}
